According to US5886146A, “Inhibitors of thrombosis” (Corvas International, Inc., priority 1995, dated 1999):
Like-named read-outs stand apart in the source and are kept apart here. Peptide text beside a SMILES is read from it. * marks the point of attachment. Hydrocinnamoyl = O=C(CCc1ccccc1)*

Key:
human α-thrombin = human α-thrombin (Homo sapiens, UniProt P00734); assay: Thrombin assay, chromogenic substrate Pefachrome t-PA; assay type: biochemical; conditions: purified human enzyme 0.25 nM, 30 minute incubation, substrate 300 μM, HBSA pH 7.5
Method: (§1) The buffer used for all assays was HBSA (10 mM HEPES, pH 7.5, 150 mM sodium chloride, 0.1% bovine serum albumin). […] Following a 30 minute incubation at ambient temperature, 50 μL of the substrate at the concentrations specified below, was added to the wells yielding a final total volume of 200 μL.
Thrombin catalytic activity was determined using the chromogenic substrate Pefachrome t-PA (CH3 SO2 -D-hexahydrotyrosine-glycyl-L-arginine-p-nitroaniline, obtained from Pentapharm Ltd.).

Human factor Xa = target: T1, Human factor Xa (Homo sapiens, UniProt P00742); assay: Factor Xa assay, chromogenic substrate S2765; assay type: biochemical; conditions: purified human enzyme 0.5 nM, 30 minute incubation, substrate 250 μM, HBSA pH 7.5
T1 construct: Human factor Xa was prepared from purified human factor X obtained from Enzyme Research Laboratories; purchased Enzyme Research Laboratories
T1 sequence (P00742 235-488 limits assumed): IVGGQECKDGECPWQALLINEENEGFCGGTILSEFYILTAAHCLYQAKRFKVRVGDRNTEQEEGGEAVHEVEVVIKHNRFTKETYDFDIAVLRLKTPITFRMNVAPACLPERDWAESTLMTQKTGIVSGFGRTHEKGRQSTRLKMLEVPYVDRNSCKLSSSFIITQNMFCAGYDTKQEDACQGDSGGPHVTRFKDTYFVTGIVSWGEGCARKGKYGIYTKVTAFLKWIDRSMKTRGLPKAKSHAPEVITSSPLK
T1 sequence (P00742 41-179 partner limits assumed): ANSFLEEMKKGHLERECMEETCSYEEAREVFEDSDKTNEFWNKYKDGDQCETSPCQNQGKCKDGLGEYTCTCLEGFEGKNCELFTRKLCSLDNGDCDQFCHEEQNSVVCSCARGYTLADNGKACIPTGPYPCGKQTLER
Method: as §1, with “μL. The initial velocity of chromogenic substrate hydrolysis was measured by the change in absorbance at 405 nm using a Thermo Max® Kinetic Microplate Reader over a 5 minute period in which less than 5% of the added substrate was utilized.” for “μL.”
Factor Xa catalytic activity was determined using the substrate, S2765 (N-α-benzyloxycarbonyl-D-argininyl-L-glycyl-L-arginine-p-nitroanilide dihydrochloride) which was obtained from Kabi Diagnostica. […] Human factor Xa was prepared from purified human factor X obtained from Enzyme Research Laboratories according to the method described by Bock, P. E. et al., Archives of Biochem. Biophys. 273: 375 (1989). The enzyme was diluted into HBSA prior to the assay in which the final concentration was 0.5 nM.

human plasmin = human plasmin (Homo sapiens, UniProt P00747); assay: Plasmin assay, chromogenic substrate S-2251; assay type: biochemical; conditions: purified human enzyme 1.0 nM, 30 minute incubation, substrate 300 μM, HBSA pH 7.5
Chain of human plasmin (P00747 581-810 limits assumed): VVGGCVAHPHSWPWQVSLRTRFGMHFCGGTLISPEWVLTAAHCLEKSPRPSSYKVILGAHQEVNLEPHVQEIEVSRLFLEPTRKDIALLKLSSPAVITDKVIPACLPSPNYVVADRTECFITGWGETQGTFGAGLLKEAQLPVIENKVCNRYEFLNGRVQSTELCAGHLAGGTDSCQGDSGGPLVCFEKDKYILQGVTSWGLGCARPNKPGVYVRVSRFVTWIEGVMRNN
Chain of human plasmin (P00747 97-580 partner limits assumed): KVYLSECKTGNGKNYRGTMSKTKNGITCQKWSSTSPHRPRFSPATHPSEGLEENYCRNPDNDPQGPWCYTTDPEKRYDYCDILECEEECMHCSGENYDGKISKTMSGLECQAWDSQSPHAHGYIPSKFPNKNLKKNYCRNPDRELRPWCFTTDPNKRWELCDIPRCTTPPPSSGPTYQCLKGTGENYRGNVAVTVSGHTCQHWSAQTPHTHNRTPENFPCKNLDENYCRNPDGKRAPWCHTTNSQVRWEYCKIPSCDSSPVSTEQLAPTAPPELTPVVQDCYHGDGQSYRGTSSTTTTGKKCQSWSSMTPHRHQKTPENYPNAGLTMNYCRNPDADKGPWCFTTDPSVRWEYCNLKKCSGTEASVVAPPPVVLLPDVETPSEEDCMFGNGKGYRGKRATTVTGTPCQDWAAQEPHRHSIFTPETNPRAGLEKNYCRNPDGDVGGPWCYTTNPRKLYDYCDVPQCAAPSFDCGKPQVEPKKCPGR
Method: The buffer used for all assays was HBSA (10 mM HEPES, pH 7.5, 150 mM sodium chloride, 0.1% bovine serum albumin). […] Following a 30 minute incubation at ambient temperature, 50 μL of the substrate at the concentrations specified below, was added to the wells yielding a final total volume of 200 μL. The initial velocity of chromogenic substrate hydrolysis was measured by the change in absorbance at 405 nm using a Thermo Max® Kinetic Microplate Reader over a 5 minute period in which less than 5% of the added substrate was utilized.
Plasmin catalytic activity was determined using the chromogenic substrate, S-2251 [D-valyl-L-leucyl-L-lysine-p-nitroanilide dihydrochloride], which was obtained from Kabi Diagnostica.

[1] = tested on: FeCl3-induced platelet-dependent arterial thrombosis; assay type: in vivo, rat; conditions: for Clot Size: mean ± S.E.M.
Excerpt: Res., 60: 269-280 (1990). […] Res., 60: 269-280 (1990). […] The animals were then euthanized.

Compound | IC50 (human α-thrombin) [µM] | IC50 (Human factor Xa) [µM] | IC50 (human plasmin) [µM] | Clot Size ([1]; Group 1, 25 μg/kg/min i.v. infusion) [%] | Clot Size ([1]; Group 2, 50 μg/kg/min i.v. infusion) [%] | Clot Size ([1]; Group 3, 100 μg/kg/min i.v. infusion) [%] | Efficacy as an antithrombotic agent (in words) ([1]; rat FeCl3 model, i.v. infusion)
CCCC(CCC)C(=O)N[C@@H](CC(=O)O)C(=O)N1CCC[C@H]1C(=O)N[C@H](C=O)CCCNC(=N)N [2PrPent-Asp-Pro-Arg-al, N-(2-propylpentanoyl)-L-aspartyl-L-prolyl-L-argininal] | 0.0062 | 0.241 | – | – | – | – | –
CC(C)CCC(=O)NC(Cc1nnn[nH]1)C(=O)N1CCC[C@H]1C(=O)N[C@H](C=O)CCCNC(=N)N (stereo partly drawn) [4MeV-Ala(Tzl)-Pro-Arg-al, 3-tetrazolyl-2-(4-methylvaleroylamido) propionyl-L-prolyl-L-argininal] | – | – | 0.5 | – | – | – | –
CC(C)CCC(=O)N[C@@H](CC(=O)O)C(=O)N1CCC[C@H]1C(=O)N[C@H](C=O)CCCNC(=N)N [4MeV-Asp-Pro-Arg-al, N-(4-methylpentanoyl)-L-aspartyl-L-prolyl-L-argininal] | 0.139 | 0.074 | – | – | – | – | –
N=C(N)NCCC[C@@H](C=O)NC(=O)[C@@H]1CCCN1C(=O)[C@H](CC(=O)O)NC(=O)CCC1CCCCC1 [ChxPA-Asp-Pro-Arg-al, N-(3-cyclohexanepropionyl)-L-aspartyl-L-prolyl-L-argininal] | 0.041 | 0.024 | – | – | – | – | –
N=C(N)NCCC[C@@H](C=O)NC(=O)[C@@H]1CCCN1C(=O)[C@H](CC(=O)O)NC(=O)CCc1ccccc1 [HCA-Asp-Pro-Arg-al, N-(3-phenylpropionyl)-L-aspartyl-L-prolyl-L-argininal] (Hydrocinnamoyl-Asp-Pro-Arg-aldehyde) | 0.092 | 0.052 | – | 48.38 ± 24.71 | 22.38 ± 21.0 | 3.38 ± 5.44 | reduction in the incidence of occlusion and in clot size
